Source: US8222247B2, “Modulators of glucocorticoid receptor, AP-1, and/or NF-kappabeta activity and use thereof” (Bristol-Myers Squibb Company, priority 2006, dated 2012)

These molecules were tested against T1, human glucocorticoid receptor (Homo sapiens, UniProt P04150) (assay: Glucocorticoid Receptor Binding Assay (I), fluorescence polarization competitor kit). Details: purified human recombinant full-length GR, Fluormone GS Red.
T1 construct: purified human recombinant full-length glucocorticoid receptor (2 nM); purchased Invitrogen Part #2893
T1 sequence (P04150 1-777): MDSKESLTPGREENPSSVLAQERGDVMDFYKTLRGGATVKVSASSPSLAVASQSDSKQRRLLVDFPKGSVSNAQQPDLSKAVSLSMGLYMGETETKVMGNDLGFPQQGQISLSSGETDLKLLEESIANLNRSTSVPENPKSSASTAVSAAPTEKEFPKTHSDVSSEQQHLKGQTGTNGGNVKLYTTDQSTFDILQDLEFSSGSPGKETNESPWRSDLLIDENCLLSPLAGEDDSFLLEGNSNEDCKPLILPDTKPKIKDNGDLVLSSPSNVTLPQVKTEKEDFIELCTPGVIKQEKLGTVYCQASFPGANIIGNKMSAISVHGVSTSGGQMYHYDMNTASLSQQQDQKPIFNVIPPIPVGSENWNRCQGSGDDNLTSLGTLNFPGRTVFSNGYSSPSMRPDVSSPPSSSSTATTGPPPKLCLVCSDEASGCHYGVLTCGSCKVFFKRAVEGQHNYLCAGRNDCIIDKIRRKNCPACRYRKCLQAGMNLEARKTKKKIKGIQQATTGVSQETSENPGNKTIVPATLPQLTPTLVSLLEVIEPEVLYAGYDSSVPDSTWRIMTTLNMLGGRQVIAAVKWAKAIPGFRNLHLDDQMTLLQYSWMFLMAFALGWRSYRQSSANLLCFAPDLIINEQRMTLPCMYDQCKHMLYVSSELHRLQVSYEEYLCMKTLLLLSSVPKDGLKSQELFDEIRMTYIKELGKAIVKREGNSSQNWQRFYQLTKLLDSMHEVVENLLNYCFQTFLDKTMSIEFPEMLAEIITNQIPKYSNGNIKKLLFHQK
Method in brief: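 Fluorescence polarization competition of purified recombinant full-length human GR (2 nM) with 1 nM Fluormone GS Red, incubated 2 h at room temperature in the dark. Normalized to vehicle (0%) and 5 μM dexamethasone (100%) as % relative binding activity. Compounds tested 8.5E-05 to 5 μM.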

Ki [nM]	SMILES
24.6	CC(C)(C(=O)Nc1nncs1)C(c1cccc(F)c1)c1ccc(N2CCOCC2)s1 (stereo not drawn) [Example 9, 3-(3-fluorophenyl)-2,2-dimethyl-3-(5-(4-morpholinyl)-2-thienyl)-N-1,3,4-thiadiazol-2-ylpropanamide]

These molecules were tested against T2, human full-length glucocorticoid receptor (Homo sapiens, UniProt P04150) (assay: Glucocorticoid Receptor Binding Assay (II), fluorescence polarization competitor kit). Details: 1 h, % Relative Binding Affinity to dexamethasone, read-out: GR (% RBA* @ 10 μM) (GR Binding Assay (II)b).
T2 construct: recombinantly expressed human full-length glucocorticoid receptor; purchased PanVera Co., Madison, Wis; P2816
T2 sequence (P04150 1-777): T1 sequence (P04150 1-777)
Protocol: Glucocorticoid Receptor Binding Assay (II)^b
In order to measure the binding of compounds on the glucocorticoid receptor a commercially available kit was used (Glucocorticoid receptor competitor assay kit, PanVera Co., Madison, Wis., P2816). Briefly, a cell lysate containing recombinantly expressed human full-length glucocorticoid receptor was mixed with a fluorescently labeled glucocorticoid (1 nM Fluormone GS1) in the presence or absence of test compound. After one hour at room temperature, the fluorescence polarization (FP) of the samples were measured. The FP of a mixture of receptor, fluorescent probe (i.e. Fluormone GS1) and 1 mM dexamethasone represented background fluorescence or 100% inhibition, whereas, the FP of the mixture without dexamethasone was taken to be 100% binding. The percentage inhibition of test molecules were then compared to the sample with 1 mM dexamethasone and expressed as % relative binding activity with dexamethasone being 100% and no inhibition is 0%. Test molecules were analyzed in the concentration range from 2.4 nM to 40 microMolar.

percent relative binding activity vs dexamethasone at 10 µM [%]	SMILES
152	CC(C)(C(=O)Nc1nccs1)C(c1ccccc1)c1ccc(N2CCOCC2)nc1 (single isomer, unassigned) [Example 20, 2,2-Dimethyl-3-(6-(4-morpholinyl)-3-pyridinyl)-3-phenyl-N-1,3-thiazol-2-ylpropanamide]
477	CC(C)(C(=O)Nc1nncs1)C(c1ccccc1)c1ccc(N2CCOCC2)nc1 (single isomer, unassigned) [Example 22, 2,2-Dimethyl-3-(6-(4-morpholinyl)-3-pyridinyl)-3-phenyl-N-1,3,4-thiadiazol-2-ylpropanamide]
6.4	CC(C)(C(=O)Nc1nncs1)C(c1cccc(F)c1)c1ccc(Br)s1 (stereo not drawn) [Example 1, 3-(5-Bromo-2-thienyl)-3-(3-fluorophenyl)-2,2-dimethyl-N-1,3,4-thiadiazol-2-ylpropanamide]
10.1	CC(C)(C(=O)Nc1nccs1)C(c1cccc(F)c1)c1ccc(Br)s1 (stereo not drawn) [Example 2, 3-(5-bromo-2-thienyl)-3-(3-fluorophenyl)-2,2-dimethyl-N-1,3-thiazol-2-ylpropanamide]
502	CC(C)(C(=O)Nc1nncs1)C(c1ccccc1)c1ccncc1 (stereo not drawn) [Example 6, 2,2-dimethyl-3-phenyl-3-(4-pyridinyl)-N-1,3,4-thiadiazol-2-ylpropanamide]
161	CC(C)(C(=O)Nc1nccs1)C(c1ccccc1)c1ccncc1 (stereo not drawn) [Example 7, 2,2-dimethyl-3-phenyl-3-(4-pyridinyl)-N-1,3-thiazol-2-ylpropanamide]
49.7	CC(C)(C(=O)Nc1nncs1)C(c1cccc(F)c1)c1ccc(N2CCOCC2)s1 (stereo not drawn) [Example 9, 3-(3-fluorophenyl)-2,2-dimethyl-3-(5-(4-morpholinyl)-2-thienyl)-N-1,3,4-thiadiazol-2-ylpropanamide]
7.4	CC(C)(C(=O)Nc1nncs1)C(c1ccc(N2CCOCC2)cc1)c1cccs1 (stereo not drawn) [Example 11, 2,2-dimethyl-3-(4-(4-morpholinyl)phenyl)-N-1,3,4-thiadiazol-2-yl-3-(2-thienyl)propanamide]
6.1	CC(C)(C(=O)Nc1nccs1)C(c1ccc(N2CCOCC2)cc1)c1cccs1 (stereo not drawn) [Example 12, 2,2-dimethyl-3-(4-(4-morpholinyl)phenyl)-N-1,3-thiazol-2-yl-3-(2-thienyl)propanamide]
14.7	CC(C)(C(=O)Nc1nncs1)C(c1ccccc1)c1ccc(N2CCCCC2)nc1 (stereo not drawn) [Example 15, 2,2-dimethyl-3-phenyl-3-(6-(1-piperidinyl)-3-pyridinyl)-N-1,3,4-thiadiazol-2-ylpropanamide]
90.4	CC(C)(C(=O)Nc1nncs1)C(c1ccccc1)c1ccc(N2CCCC2)nc1 (stereo not drawn) [Example 16, 2,2-dimethyl-3-phenyl-3-(6-(1-pyrrolidinyl)-3-pyridinyl)-N-1,3,4-thiadiazol-2-ylpropanamide]
112	CC(C)(C(=O)Nc1nncs1)C(c1ccccc1)c1ccc(N2CCC(O)CC2)nc1 (stereo not drawn) [Example 17, 3-(6-(4-hydroxy-1-piperidinyl)-3-pyridinyl)-2,2-dimethyl-3-phenyl-N-1,3,4-thiadiazol-2-ylpropanamide]
37.2	Cc1ccc(CNc2ccc(C(c3ccccc3)C(C)(C)C(=O)Nc3nccs3)cn2)cc1 (stereo not drawn) [Example 18, 2,2-dimethyl-3-(6-((4-methylbenzyl)amino)-3-pyridinyl)-3-phenyl-N-1,3-thiazol-2-ylpropanamide]
16.3	COc1ccc(-c2ccc(C(c3ccccc3)C(C)(C)C(=O)Nc3nncs3)cn2)cc1 (stereo not drawn) [Example 24, 3-(6-(4-Methoxyphenyl)-3-pyridinyl)-2,2-dimethyl-3-phenyl-N-1,3,4-thiadiazol-2-ylpropanamide]
73.4	CC(C)(C(=O)Nc1nccs1)C(c1ccccc1)c1ccc(-c2ccoc2)nc1 (stereo not drawn) [Example 25, 3-(6-(3-furyl)-3-pyridinyl)-2,2-dimethyl-3-phenyl-N-1,3-thiazol-2-ylpropanamide]
52.8	COc1ncc(C(c2ccccc2)C(C)(C)C(=O)Nc2nncs2)cc1Cl (stereo not drawn) [Example 27, 3-(5-chloro-6-methoxy-3-pyridinyl)-2,2-dimethyl-3-phenyl-N-1,3,4-thiadiazol-2-ylpropanamide]
187	CC(C)(C(=O)Nc1nncs1)C(c1ccccc1)c1cnc(N2CCOCC2)c(Cl)c1 (stereo not drawn) [Example 28, 3-(5-chloro-6-(4-morpholinyl)-3-pyridinyl)-2,2-dimethyl-3-phenyl-N-1,3,4-thiadiazol-2-ylpropanamide]
